According to ChEMBL document CHEMBL5335832, “Cavomycins A-C, Linear Oligomer Depsipeptides from an Annelid-Associated Streptomyces cavourensis” (J Nat Prod, 2024):
The source made the active and inactive calls. The calls are words filed in the database; no cut-off is given here.

How the values were obtained:
PANC-1 [1] = test: Antiproliferative activity against human PANC-1 cells assessed as inhibition of cell growth at 20 to 100 uM incubated for 72 hrs by MTT assay; format: functional, cell-based; details: dose 20-100 µM
PANC-1 [2] = test: Antiproliferative activity against human PANC-1 cells assessed as inhibition of cell growth incubated for 72 hrs by MTT assay; format: functional, cell-based; details: PANC-1, 72 h

Structure (SMILES) | Activity (PANC-1 [1]) | IC50 (PANC-1 [2])
CC(C)[C@H](NC(=O)[C@H](C)OC(=O)[C@H](NC(=O)[C@H](OC(=O)[C@@H](NC(=O)[C@H](C)OC(=O)[C@H](NC(=O)[C@H](OC(=O)[C@@H](NC(=O)[C@H](C)OC(=O)[C@@H](NC(=O)[C@H](C)O)C(C)C)C(C)C)C(C)C)C(C)C)C(C)C)C(C)C)C(C)C)C(=O)O | inactive | 
CC(C)[C@H](NC(=O)[C@H](C)O)C(=O)O[C@@H](C(=O)N[C@@H](C(=O)O[C@@H](C)C(=O)N[C@H](C(=O)O[C@@H](C(=O)N[C@@H](C(=O)O[C@@H](C)C(=O)N[C@H](C(=O)O[C@@H](C(=O)N[C@@H](C(=O)O)C(C)C)C(C)C)C(C)C)C(C)C)C(C)C)C(C)C)C(C)C)C(C)C |  | 1200 nM
CC(C)[C@H](NC(=O)[C@H](C)OC(=O)[C@H](NC(=O)[C@H](OC(=O)[C@@H](NC(=O)[C@H](C)OC(=O)[C@H](NC(=O)[C@H](OC(=O)[C@@H](NC(=O)[C@H](C)O)C(C)C)C(C)C)C(C)C)C(C)C)C(C)C)C(C)C)C(=O)O | inactive | 
COC(=O)[C@H](NC(=O)[C@H](OC(=O)[C@@H](NC(=O)[C@H](C)OC(=O)[C@H](NC(=O)[C@H](OC(=O)[C@@H](NC(=O)[C@H](C)OC(=O)[C@H](NC(=O)[C@H](OC(=O)[C@@H](NC(=O)[C@H](C)O)C(C)C)C(C)C)C(C)C)C(C)C)C(C)C)C(C)C)C(C)C)C(C)C)C(C)C |  | 1700 nM
